In series [1] the test system is stable variant of HCT-116 cells. As to the kind of experiment: Sensitivity of SNS-595-resistant HCT-116 variant. The following applies: cells with induced resistance. Format: cell-based. The source says: Consistent with this mechanism, cells with induced resistance to SNS-595 also have alterations in the DNA-PK pathway. […] Conversely, decreased levels of DNA-PK or its activity (e.g. in the presence of an inhibitor) is associated with an increased sensitivity to SNS-595.

Series [2] deals with DNA-PK pathway. As to the kind of experiment: Dose-dependent responses of DNA-PK pathway members in HCT 116 cells (FIG. 2). To be noted: H2AX, c-Abl, p53, p73, p21, caspase-9, caspase-3. Format: cell-based. The source says: (§1) This damage impedes the ability of the cell to synthesize DNA and lengthens the time the cell spends in the S phase. […] When the DNA damage is sufficiently severe such that the double-strand breaks cannot be repaired through non-homologous end joining (NHEJ), the cell rapidly enters apoptosis. Some cells are able to reach the G2 phase but are subsequently arrested (mediated by cdc2/cyclin B) because the cells are too damaged to enter into the M phase and also eventually becomes apoptotic.

The subject of the next series is non-proliferating cells. Nature of the series: Cytotoxicity to non-proliferating cells. Format: cell-based. To be noted: doses cytotoxic to proliferating cells.
Description: as §1, with “Treatment with SNS-595 results in an increase in the number of double-strand DNA breaks that form during the S phase. This” for “This”

Another series deals with various cells. As to the kind of experiment: Cytotoxicity of SNS-595 in various cells. Format: cell-based. The text has this: SNS-595 is a cell cycle inhibitor and arrests cells at the G2 interface. Initially, the activity of SNS-595 was believed due to topoisomerase II inhibition.
As shown by FIG. 1, ATM, ATR, and DNA-PK are three central DNA sensors/effectors that depending on the level of DNA damage that is detected within an individual cell, direct the cell into one of several outcomes including DNA repair, G2 arrest or apoptosis.

The nature of series [3]: Pharmacokinetics of SNS-595 in cancer patients. Format: in vivo, human. On the procedure:
SNS-595 was administered to enrolled patients for up to six cycles. A cycle is defined as a three-week period, with SNS-595 administered on the first day of each cycle (day 0), followed by at least 21 days of observation. SNS-595 was administered to cohorts of at least 3 patients and dose escalation occurred by sequential cohort.

Series [4] concerns DNA-PK pathway. Nature of the series: Pharmacodynamic study, HCT116 xenograft tumors, Western blots (FIG. 3). Format: in vivo. The following applies: nu/nu mice, IV bolus 20 or 40 mg/kg, 1-24 hours post dose. On the procedure:
Nu/nu mice (ca. 25 grams) were injected with HCT116 cells (which were obtained from the ATCC) in the hind flank at 5 million cells with 50% matrigel (Becton-Dickinson). Tumors were allowed to grow to 400 mm^3. Xenograft bearing animals were then given either an IV bolus injection of SNS-595 (20 or 40 mg/kg) in the tail vein or a saline vehicle. At prescribed time points (1, 2, 4, 8, 16, and 24 hours post dose), animals were anesthetized with CO2, blood was taken via terminal cardiac puncture, and animals were sacrificed. Tumors were excised, pulverized using liquid nitrogen-cooled mortar and pestle, and flash-frozen in liquid nitrogen. Tumor lysates were made from pulverized samples by addition of lysis buffer. The protein concentrations of the DNA-PK pathway members were determined by Western blots. Approximately 25 micrograms of protein was loaded per lane on an SDS-PAGE gel. Proteins were separated by gel electrophoresis, blotted onto nitrocellulose membranes, and detected using the following antibodies: H2AX, phosphorylated at S139 (Cell Signaling, catalog no. 2577L); p53, phosphorylated at S15 (Cell Signaling, catalog no. 9284S); p53, phosphorylated at S37 (Cell Signaling, catalog no. 9289S); p21 (Cell Signaling, catalog no. 2946); cdc2, phosphorylated at Y15 (Calbiochem, catalog no. 219437); cyclin B (Santa Cruz, catalog no.sc-594 (H-20)); p73, phosphorylated at […] […]
Background: In western blotting, separated proteins are transferred to a membrane and probed.

As to `CN[C@H]1CN(c2ccc3c(=O)c(C(=O)O)cn(-c4nccs4)c3n2)C[C@@H]1OC` [SNS-595, (+)-1,4-dihydro-7-[(3S,4S)-3-methoxy-4-(methylamino)-1-pyrrolidinyl]-4-oxo-1-(2-thiazoyl)-1,8-naphthyridine-3-carboxylic acid], the “sensitivity to SNS-595 relative to HCT-116 cells” value in series [1] is on record as “approximately ten fold less sensitive”. Also, the “activation of DNA-PK mediated repair and apoptotic machinery” value with DNA-PK pathway [2] was “activates, in a dose dependent manner”. For the same compound, in the series with non-proliferating cells, the “lethality to non-proliferating cells” value was “non-lethal”. Also, in the series on various cells, the half-maximal effective concentration (EC50) fell in the range of 200 to 300 nM and the “difference in potency, cell EC50 versus biochemical inhibition of topoisomerase II” value is given as “at least a ten-fold difference”. For the same compound, the “EC50 in caffeine treated cells (G2 arrest abrogated) versus untreated cells” value with various cells (caffeine inhibits ATM and ATR) is on record as “essentially no difference in EC50 values”. Besides, the “activity in 2-deoxyglucose treated cells versus untreated cells” value in the series with various cells (topoisomerase II levels modulated with 2-deoxyglucose) is recorded as “essentially no difference in activity”. Besides, the “relation of dose with AUC∞” value in series [3] (dose escalation by cohort) is reported as “linear”. Besides, the MRT inf in series [3] (human, intravenous, plasma, dose 3 mg/m2, mean, read-out: MRTINF_obs) was found to be 22 h. In addition, the MRTINF_obs in series [3] (plasma, dose 6 mg/m2, mean) was 29.05 h. In series [3] (plasma, dose 12 mg/m2, mean), this compound displayed a C0 of 2888.66 ng/mL and an MRTINF_obs of 23.67 h. Besides, the “levels of DNA-PK pathway members in tumors” value in the series with DNA-PK pathway [4] is “activated”.

The term EC50 denotes the concentration that produces a half-maximal response. The low end stands for higher potency in that assay, the high end for lower potency in that assay.

These data come from patent US7968565B2, “Therapeutic combinations comprising (+)-1,4-dihydro-7-[(3S,4S)-3-methoxy-4-(methylamino)-1-pyrrolidinyl]-4-oxo-1-(2-thiazolyl)-1,8-naphthyridine-3-carboxylic acid” (Sunesis Pharmaceuticals, Inc., priority 2004, dated 2011).
